Molecules are shown by their SMILES. Several values for one entry are separate records, joined by “and”; a condition that tells them apart may be missing. Equal entries are not always repeated. Structures can show the parent of a compound that is named as a salt.

Turning to `CCCCCCCC(=O)O` [octanoic_acid], the melting point is 17 °C.

Regarding `C[C@]12CCC(=O)C=C1CC[C@@H]1[C@@H]2C(O)C[C@@]2(C)[C@H]1CC[C@]2(O)C(=O)CO` (stereo partly specified) [11,17,21-Trihydroxypregn-4-ene-3,20-dione], the melting point stood at 223 °C.

For `CCCCCCCO` [1-heptanol], the melting point is -34 °C (2×) and -33.2 °C. Next, `c1ccc2c(c1)cc1ccc3cccc4ccc2c1c34` [3,4-benzopyrene]: 179 °C; `CC12CCC(O)CC1CC1(OCCO1)C1C2CCC2(C)C1CCC21OCCO1` (stereo unspecified): 101 °C; `OB(O)c1cccnc1Cl` [2-chloropyridine-3-boronic acid]: 160 °C.

Consider `Nc1ncc2ncn(COCCO)c2n1` [6-Deoxyacyclovir], for which the melting point was 188 °C and 189 °C. To `COc1ccc(N=C=S)cc1` [4-methoxyphenyl isothiocyanate] belongs 19 °C; to `CC(=O)C(C)(C)C` [3,3-dimethyl-2-butanone], -52 °C; to `CCCCCCCCCC(=O)O` [decanoic_acid], 32 °C. To `CC(=O)OCC(CCn1cnc2cnc(N)nc21)COC(C)=O` [Famciclovir] belongs 103 °C; to `C/C(=C\C(=O)O)c1ccc(C)cc1` [(2E)-3-(4-methylphenyl)but-2-enoic acid], 135 °C. To `COc1ccc(B(O)O)cc1` [4-methoxybenzeneboronic acid] belongs 205 °C.

`OCC1COc2ccccc2O1` (stereo unspecified) [2-hydroxymethyl-1,4-benzodioxane] registered a melting point of 89 °C. Next, `COC(=O)c1ccccc1` [Methyl benzoate]: -12 °C; `OC1CCCC1` [cyclopentanol]: -19 °C; `Cc1cc(C)nc(N)n1` [2-amino-4,6-dimethylpyrimidine]: 153 °C.

Compound `Cc1ccccc1C` [o-xylene] gave a melting point of -25 °C.

Compound `O=S(Cl)Cl` [Thionyl dichloride] yielded a melting point of -104 °C.

`CCCCCCCCCCCCCCCCCCN1c2ccccc2C(C)(C)C12C=Cc1cc([N+](=O)[O-])ccc1O2` (stereo unspecified) showed a melting point of 81 °C.

Regarding `COCC(C)O` (stereo unspecified) [1-Methoxypropan-2-ol], the melting point was -97 °C. Next, `COc1cc(OC)c2c(c1)C(O)OC2=O` (stereo unspecified) [3-hydroxy-5,7-dimethoxy-2-benzofuran-1(3H)-one]: 185 °C. Next, `COC(=O)[C@@H]1C2CCC(C[C@@H]1OC(=O)c1ccccc1)N2C` (stereo partly specified) [Cocaine]: 195 °C. To `CCOC(=O)C1=C(C)CC(C)=N1` [ethyl 3,5-dimethylpyrrole-2-carboxylate] belongs 126 °C; to `OB(O)c1ccc(CBr)cc1` [4-(bromomethyl)benzeneboronic acid], 148 °C. With `CCCN(CCC)CCC` [tri-n-propylamine], the melting point was -93 °C. The compound `CC(=O)c1ccc(C)cc1` [p-methylacetophenone] displayed a melting point of 24 °C. To `C=CCCCCCCCC` [1-decene] belongs -66.1 °C; to `Nc1ccc2c(c1)C(=O)c1ccccc1C2=O` [2-Amino-9,10-anthraquinone], 295 °C.

In turn, `O=C(O)CCCCBr` [5-bromovaleric acid] showed a melting point of 40 °C.

In turn, `C=C1C(C[C@@H](O)C[C@@H]1O)=CC=C2/CCC[C@]3(C)[C@H](CC[C@@H]23)[C@H](C)CCCC(C)(C)O` [Calcitriol] displayed a melting point of 113 °C. Turning to `CCC=O` [propanal], the melting point was -80 °C. To `Cc1ccc(C(=O)O)cc1C` [3,4-dimethylbenzoic acid] belongs 166 °C; to `O=C(N[C@H](CO)[C@H](O)c1ccc([N+](=O)[O-])cc1)C(Cl)Cl` [chloramphenicol], 151 °C. Next, `CCCCCCCCCCCCCCC` [N-pentadecane]: 10 °C; `NS(=O)(=O)c1cc2c(cc1C(F)(F)F)NCNS2(=O)=O` [hydroflumethiazide]: 272 °C. The compound `ICCCCI` [1,4-diiodobutane] showed a melting point of 6 °C. For `CC(CCC(=O)O)C1CCC2C3C(O)CC4CC(O)CCC4(C)C3CC(=O)C12C` (stereo unspecified) [3,7-dihydroxy-12-oxocholan-24-oic acid], the melting point turned out to be 221 °C. Next, `NCCCCCCN` [1,6-diaminohexane]: 41 °C; `O=Cc1cccc(Cl)c1` [m-chlorobenzaldehyde]: 18 °C. Next, `CC(C)Oc1ccc(Nc2ccccc2)cc1` [4-Isopropoxy-N-phenylaniline]: 79 °C. In the case of `OCc1ccnc(Cl)c1` [2-chloropyridine-4-methanol], the melting point turned out to be 65 °C. To `CC(C)CCCCCCCOC(=O)c1ccccc1C(=O)OCCCCCCCC(C)C` [Bis(8-methylnonyl) phthalate] belongs -50 °C; to `Clc1ccc(C(c2ccc(Cl)cc2)C(Cl)(Cl)Cl)cc1` [4,4'-DDT], 110 °C; to `N=C(N)NC(N)=S` [N-amidinothiourea], 164 °C.

`CC(O)CCc1ccc(CCC(C)O)cc1` (stereo unspecified) [4,4'-benzene-1,4-diyldibutan-2-ol] gave a melting point of 44 °C.

On to `O=C(O)Cc1ccccc1` [phenylacetic acid], for which the melting point was 77.5 °C. Next, `CCCC=O` [Butyraldehyde]: -96 °C; `CCC(=O)c1ccccc1` [propiophenone]: 18 °C; `CCCCCCCC/C=CCCCCCCCC(=O)O` [oleic acid]: 14 °C. To `C#CCCCCCCCCCC` [1-dodecyne] belongs -19 °C; to `CCCC(=O)O` [Butyric acid], -5 °C. `OCC(O)CO` [glycerol] yielded a melting point of 18 °C. Next, `O=C(CBr)c1ccccc1` [2-bromoacetophenone]: 50 °C. To `CCCCCCCCCCCC(N)=O` [Lauramide] belongs 99 °C; to `O=C1c2c(O)ccc([N+](=O)[O-])c2C(=O)c2c([N+](=O)[O-])ccc(O)c21` [1,8-Dihydroxy-4,5-dinitro-9,10-anthraquinone], 225 °C.

`FC(F)(F)C(F)(F)C(F)(F)C(F)(F)C(F)(F)C(F)(F)C(F)(F)C(F)(F)Br` [1-bromoperfluorooctane] yielded a melting point of 6 °C. To `OCC(F)F` [2,2-difluoroethanol] belongs -28 °C. Next, `COc1cc(Cc2cnc(N)nc2N)cc(OC)c1OC` [5-(3,4,5-Trimethoxybenzyl)pyrimidine-2,4-diamine]: 201 °C. For the compound `CCN(O)CC` [N,N-diethylhydroxylamine], the melting point is -25 °C.

Turning to `C/C(=C/C(=O)O)C(F)(F)F` [3-(trifluoromethyl)crotonic acid], the melting point came to 29 °C. Next, `C1CCCCC1` [cyclohexane]: 7 °C. Turning to `CCC(C)OC(C)=O` (stereo unspecified) [sec-butyl acetate], the melting point was -99 °C. Next, `COc1ccc(-c2nnn[nH]2)cc1` [5-(4-methoxyphenyl)-1h-tetrazole]: 237 °C; `CNC=O` [N-methylformamide]: -4 °C; `CC(=O)N1CCN(c2ccc(OCC3COC(Cn4ccnc4)(c4ccc(Cl)cc4Cl)O3)cc2)CC1` (stereo unspecified) [ketoconazole]: 146 °C. As for `CN(C)c1ccc(N=O)cc1` [N,N-Dimethyl-4-nitrosoaniline], the melting point is 86 °C.

`Oc1cccc2ccccc12` [1-naphthol] gave a melting point of 96 °C. Next, `CC(C)[C@@H](NC(=O)OCc1ccccc1)C(=O)O` [N-benzyloxycarbonyl-D-valine]: 59 °C. To `Nc1ccc(C(=O)O)cc1` [4-aminobenzoic acid] belongs 188 °C; to `CC=1CCCC(C)(C)C=1/C=CC(C)=CC=CC(C)=CC(=O)O` [Alitretinoin], 190 °C; to `c1ccc(Cn2ccnc2)cc1` [1-benzylimidazole], 71 °C. To `C[Si](C)(Cl)Cl` [dichlorodimethylsilane] belongs -76 °C; to `CCCCc1ccc(C#Cc2ccc(CCCC)cc2)cc1` [1-n-butyl-4-[(4-butylphenyl)ethynyl]benzene], 41 °C; to `CC(C)CCBr` [1-bromo-3-methylbutane], -112 °C. The compound `C#C[C@]5(O)CC[C@H]4[C@H]3[C@@H]([C@@]2(/C(=C\c1oncc1C2)CC3)C)CC[C@@]45C` [danazol] returned a melting point of 225 °C. To `Nc1ccc(I)cc1` [4-iodoaniline] belongs 63 °C; to `COc1cccc(C(=O)O)c1` [3-methoxybenzoic acid], 106 °C; to `c1ccc2c(c1)Nc1ccccc1S2` [phenothiazine], 184 °C (3×) and 188 °C and 185 °C (2×). Compound `CC(C)c1ccc(Br)cc1` [p-bromocumene] showed a melting point of -22 °C. Compound `Clc1cccc2cc3ccccc3cc12` [1-chloroanthracene] gave a melting point of 77 °C. Next, `Cc1cc(O)n2ncnc2n1` [7-hydroxy-5-methyl[1,2,4]triazolo[1,5-a]pyrimidine]: 283 °C; `COC(=O)C1Cc2ccccc2C(=O)O1` (stereo unspecified) [methyl 1-oxo-3,4-dihydro-1H-isochromene-3-carboxylate]: 90 °C. To `CCOC(=O)/C=CC(=O)OCC` [diethyl maleate] belongs -11 °C.

Consider `Cc1ccc(C(C)(C)C)cc1` [1-methyl-4-tert-butylbenzene], for which the melting point is -53 °C. Next, `CCCCCCCCCCl` [1-chlorononane]: -39 °C; `Cc1ccc(B(O)O)cc1` [4-methylbenzeneboronic acid]: 250 °C; `CC(C(=O)O)c1ccc(-c2ccccc2)c(F)c1` (stereo unspecified) [Flurbiprofen]: 114 °C. `Clc1ccc(-c2ccc(Cl)cc2)cc1` [PCB-15]: the melting point worked out at 149 °C.

Take `NCCNCCN` [N-(2-Aminoethyl)ethane-1,2-diamine]: the melting point is -35 °C.

`C[C@@](Cc1ccc(O)c(O)c1)(NN)C(=O)O` [Carbidopa] had a melting point of 204 °C.
